Several values for one entry are separate records, joined by “and”; a condition that tells them apart may be missing. Equal values may be shown once.
Tests used:
[1] = tested on: hippocampal gene expression; assay: RNAseq and pathway analysis of hippocampal tissue, B6-D/+ adult males; type: in vivo, mouse
Description: Transcriptome studies: B6-D/D and wild-type (+/+) (n=3) were administered CND or VEH by s.c. injection for a period of 5 days starting at P15 and sacrificed for removal of hippocampal tissue (n=12) (FIG. 1B). Adult B6-D/+ male (n=3) mice were administered CND or VEH pellets as described above at the time of seizure onset and monitored for seizures for an extended period before sacrifice and removal of hippocampal tissue (100-160 d) (i.e., to match the age at which a VEH-treated male B6-D/+ experience ˜20 TCs) (FIG. 1B).
RNA sequencing: Hippocampal tissues from 21 mice were obtained according to a sampling strategy that compared (1) untreated (VEH only) and treated B6-D/D (n=3) with age-matched B6-+/+ controls (n=3 per group), (2) untreated (VEH only) male B6-D/+ mice that had experienced ˜20 TCs (n=3 per group) with age-matched B6-+/+ controls (n=3 per group), and (3) male B6-D/+ mice that were treated with CND for an extended period (n=3 per group). Brains of treated and untreated mice were dissected to yield tissue samples from the hippocampus. Bulk tissue was stored in RNALater (Qiagen, Valencia, CA) at −80 degrees centigrade. The technique for analyzing hippocampal gene expression was performed. Briefly, RNA was isolated from hippocampal tissue, and initial QC was performed. Libraries were constructed using a stranded mRNA-Seq Kit, and average fragment size was assessed. After concentrations were determined with an adaptor-specific qPCR kit, equimolar samples were pooled and clustered for sequencing on a Novaseq instrument (Illumina). Sample data were demultiplexed, trimmed, and quality filtered, and Fastq files were splice-aligned against the […] reference genome using STAR aligner version 2.5.2b. Gene expression counts were obtained using htseq-count version 0.6.1. Both splice alignment and counting were performed with Ensembl Annotation of the NCBI reference genome, and raw counts were analyzed with edgeR version 3.16.5.
Data and pathway analysis: Results of statistical summaries were generally expressed as mean±SD. Kaplan-Meier survival curves were used to test for differences in survival. […] A ‘perturbation signature’ approach was used to identify genome-wide differences in transcript abundance between transgenic mice (i.e., D/+, D/D, or +/+) that were untreated (VEH) or treated with CND. Differential expression analysis was performed. Briefly, the exactTest function was utilized in edgeR, and gene expression counts were first normalized using the calcNormFactors function. DEG analysis was performed on treatment versus control groups at two different ages using three biological replicates per group, which has been shown in power analyses to be sufficient to yield a true positive rate greater than 80% under the conditions used here. Multidimensional scaling (MDS) plots were constructed using the ‘plotMDS’ function in edgeR, which plots samples on a 2D scatterplot so that distances on the plot approximate the typical log 2 fold changes between samples. […] Rather than focusing on any single gene, bioinformatic analyses of our RNAseq data identified the most statistically significant biological pathways that were enriched given the set of DEGs in each experiment.

[2] = tested on: B6-D/+ (Scn8a-N1768D) adult mice; assay: Survival and seizure frequency, adult B6-D/+ mice followed for the entire lifespan; type: in vivo, mouse; design: reduction in post-onset seizure frequency: concentration or dose not given beside the values; conditions: for observed standard effect size, Kaplan-Meier survival: treated versus untreated
Excerpt: Mouse strains: The C57BL/6J-N1768D congenic mouse (B6-D/+) was used for phenotyping, RNAseq, and BBB studies. In addition, a hybrid strain that was produced by backcross breeding to transfer the Scn8a-N1768D allele from the B6 to the C3H/HeJ strain background was used to further assess the effect of CND on survival and seizure frequency. After constructing an F1 by crossing male B6-D/+ heterozygotes to female C3H/HeJ, five rounds of backcrossing (N6) produced a […] and 98.5% C3H/HeJ-N1768D line (C3H-D/+). Sister-brother mating maintained the 98.5% C3H background. […] C3H-D/D mice have a delayed seizure onset (˜40-45 days) and an extended survival (65-70 days) with intermittent bouts of TCs (FIG. 1A).
Phenotyping: Female and male mice on both the B6 and C3H backgrounds were housed in sex-specific groups of 3-4 per cage in a pathogen-free mouse facility with a 14 h light/10 h dark cycle (lights turned on at 5 am). A 24/7 video monitoring system was utilized to collect seizure data, with infrared illumination to monitor behavior during the dark period. Seizures were counted as individual TCs. Adult mice were followed from the age of 6 weeks, a period of time well before seizure onset, in order to identify the day of seizure onset. A seizure bout was defined as a cluster of seizures on consecutive days, and a gap as a seizure-free period of 3 days or more.
Preparation of CND suspension for injections and oral dosing: Juvenile B6-D/D and adult B6-D/+ mice were given subcutaneous (s.c.) injections with either CND (2-4 mg/kg/day; doses that fall within the FDA-approved range for CND in both adults and children) or vehicle (VEH) (Sigma-Aldrich) (FIG. 1B). Oral dosing of adults was performed by thoroughly mixing 160 μl of suspension containing 1.28 mg of CND or VEH with 5 g of pure (organic) peanut butter in a petri dish. Mice were given 1 g pellet per mouse each day. Pellets were weighed each day to record the amount consumed, and 24/7 video was used to verify that each mouse was consuming the pellet. An average of 0.79 g (±0.36 g) was consumed by an adult mouse (˜20-25 g), corresponding to 9.1±4.2 mg/kg/day. No correlations were found for the amount of CND consumed and lifetime survival or number of TCs.
Survival and seizure frequency studies: B6-D/D mice were injected with CND (n=10) or VEH (n=10) at 15 days of age (P15) and followed to monitor TCs by 24/7 video recording until death (FIG. 1B). A separate set of 10 B6-D/D mice was administered a daily s.c. injection of 25 mg/kg/day phenytoin (PHT) suspension or VEH (US Pharmacopeia, Sigma-Aldrich). […] Mice were monitored for seizures by 24/7 video recording until the time of death.

CCOc1nc2cccc(C(=O)O)c2n1Cc1ccc(-c2ccccc2-c2nnn[nH]2)cc1 [CND, candesartan]
TREATED z-score, upstream regulator ERBB2 ([1]; B6-D/+ Adult males): −2.00 | TREATED z-score, upstream regulator NUPR1 ([1]; B6-D/+ Adult males): −2.00 | TREATED z-score, upstream regulator PTGS2 ([1]; B6-D/+ Adult males): -2.8 | number of canonical pathways predicted to be activated ([1]; CND-treated B6-D/+ adult males): 11 | number of canonical pathways predicted to be deactivated ([1]; CND-treated B6-D/+ adult males): 3 | number of enriched canonical pathways ([1]; CND-treated B6-D/+ adult males): 14 | number of DEGs ([1]; CND-treated B6-D/+ males): 86 | number of down-regulated DEGs ([1]; CND-treated B6-D/+ males): 10 | number of up-regulated DEGs ([1]; CND-treated B6-D/+ males): 76 | increase in survival, treated versus untreated ([2]; B6-D/+ females): 34.7% | reduction in post-onset seizure frequency ([2]; B6-D/+ females): 88.9% | observed standard effect size, Kaplan-Meier survival ([2]; B6-D/+ females): 0.59 | increase in survival, treated versus untreated ([2]; B6-D/+ males): 48.9% | mean days surviving longer than untreated ([2]; B6-D/+ males): 44.5 days | reduction in post-onset seizure frequency ([2]; B6-D/+ males): 56.5% and 59.1% | observed standard effect size, Kaplan-Meier survival ([2]; B6-D/+ males): 0.69 | #Days survived postTC ([2]; B6 Females (D/+), Treated): 76.4 days | #TCs ([2]; B6 Females (D/+), Treated): 14.3 TCs | #TCs/day (PostTC) ([2]; B6 Females (D/+), Treated): 0.24 TCs/day | Age at Onset ([2]; B6 Females (D/+), Treated): 91.2 days | gap days ([2]; B6 Females (D/+), Treated): 34.0 days | mean gap length ([2]; B6 Females (D/+), Treated): 8.3 days | Age at Death ([2]; B6 Females (D/+), Treated, oral from seizure onset): 167.6 ± 19.1 days and 167.6 days | #gaps (av) ([2]; B6 Females (D/+), Treated, gap = seizure-free period of 3 days or more): 4.0 | #Days survived postTC ([2]; B6 Males (D/+), Treated Early): 16.8 days | #TCs ([2]; B6 Males (D/+), Treated Early): 18.9 TCs | #TCs/day (PostTC) ([2]; B6 Males (D/+), Treated Early): 2.4 TCs/day | #gaps (av) ([2]; B6 Males (D/+), Treated Early): 2.6 | Age at Death ([2]; B6 Males (D/+), Treated Early): 121.6 days | Age at Onset ([2]; B6 Males (D/+), Treated Early): 99.2 days | gap days ([2]; B6 Males (D/+), Treated Early): 15.0 days | mean gap length ([2]; B6 Males (D/+), Treated Early): 6.7 days | #Days survived postTC ([2]; B6 Males (D/+), Treated Late): 52.7 days | #TCs ([2]; B6 Males (D/+), Treated Late): 43.6 TCs | #TCs/day (PostTC) ([2]; B6 Males (D/+), Treated Late): 1.0 TCs/day | #gaps (av) ([2]; B6 Males (D/+), Treated Late): 4.0 | Age at Onset ([2]; B6 Males (D/+), Treated Late): 81.3 days | gap days ([2]; B6 Males (D/+), Treated Late): 37.8 days | mean gap length ([2]; B6 Males (D/+), Treated Late): 12.4 days | Age at Death ([2]; B6 Males (D/+), Treated Late (oral from seizure onset)): 135.8 ± 28.4 days and 135.8 days
